Earlier results, collected in patent US20100136109A1, “SUSTAINED RELEASE” (priority 2007, published 2010).

Settings: in vivo

| half-life | Structure (SMILES) |
| --- | --- |
| approx 12 hours | N[C@@H](Cc1cc(I)c(Oc2ccc(O)c(I)c2)c(I)c1)C(=O)O [Formulation T3, triiodothyronine] |
| 170 h | N[C@@H](Cc1cc(I)c(Oc2cc(I)c(O)c(I)c2)c(I)c1)C(=O)O [Formulation T4, thyroxine] |
